Measured values as given in patent US20070270392A1, “Use of a Cyclopentenone Prostaglandin for Delaying the Onset and/or Preventing the Continuation of Labour” (Imperial College Innovations Limited, priority 2003, published 2007).

Legend:
NF-κB [1] = experiment: Western immunoblot of NF-κB activation (p65, p50, IκB) in myometrial cells; format: cell-based, human; design: Accumulation of phosphorylated IκBα: dose or concentration left out as unconfirmed
Experimental: Western immunoblots of nuclear or cytosolic protein extracts from (A) myometrial cells, (B) L− amnion cells, and (C) L+amnion cells treated with 15dPGJ2 or vehicle for 2 h+/−IL-1, stimulation (15 min). Blots probed with antibodies against p65, p50 or IκBα.
Western immunoblot of nuclear or cytosolic protein extracts from myometrial cells treated with PGA1 or vehicle for 2 h followed by IL-1β stimulation (15 min). Blots probed with antibodies against p65 or IκBa.
Analysis of nuclear protein extracts from myometrial cells treated with PGE2 or vehicle for 2 h+/−TNFα or IL-1b stimulation (15 min). (A) EMSA using consensus κB probe. (B) Western immunoblot probing for nuclear p65.
Western immunoblots of cytosolic extracts from myometrial cells (A) treated with 15dPGJ2 for 2 h+/−IL1b for 15 min; probed for IKK, and (B) treated with […] 15dPGJ2, […] MG132 or vehicle for 2 h, +/−IL-1β for 15 min; probed for IκBα.
Myometrial tissue was collected at term from the upper margin of uterine incision at the time of lower segment caesarean section either prior to the onset of labour (L−) or […] (L+). L+ samples were collected by Dr Mark Johnson and Dr S Soorrana at Chelsea & Westminster Hospital. Myometrial tissue was dissected, rinsed in PBS, and digested in serum-free DMEM containing 15 mg/ml collagenase 1A (Sigma), 15 mg/ml collagenase X, and 50 mg/ml bovine serum albumin for 45 min at 37° C. The cell suspension was filtered through a cell strainer, centrifuged at 400 g for 5 min, and the pellet re-suspended and plated out in DMEM, 10% FCS (Helena BioScience), 1% L-glutamine, 1% penicillin-streptomycin. Cells were used between passage numbers 1-4.
(§1) Nuclear and cytosolic protein extracts were obtained from cultured amnion cells as described by Schreiber et al (1989). For nuclear/cytosolic fractionation, confluent cell monolayers were scraped and lysed using a buffer containing 10 mM HEPES, 10 mM KCl, 0.1 mM EDTA, 0.1 mM EGTA, 2 mM DTT, 1% (v/v) NP-40 and complete protease inhibitor tablets (CPIs, Roche), diluted to manufacturer's instructions. Cell lysates were incubated on ice for 10 min and NP-40 added to a final concentration of 1% (v/v). Lysates were vortexed for 10 secs and centrifuged for 30 secs at 4° C., 12000 g. The supernatants were retained as the cytosolic protein extracts. The pellets were resuspended in buffer containing 10 mM HEPES, 10 mM KCl, 0.1 mM EDTA, 0.1 mM EGTA, 2 mM DTT, 400 mM NaCl, 1% NP-40 (v/v) and CPIs. Samples were shaken vigorously for 15 min in an ice bath. The nuclear protein extracts were obtained in the supernatant following a 5 min centrifugation at 4° C., 12000 g.
Protein samples (20-70 μg) were mixed with Laemmli sample buffer (1:1) containing β-mercaptoethanol (5%), and boiled for 5 min. Proteins were then separated by SDS-PAGE (12-14% gels) and transferred onto PVDF membrane (Amersham Pharmacia Biotech). The membranes were blocked overnight in 5% non-fat milk prepared in PBS-T buffer, at 4° C. The blots were incubated with the primary antibody in 1% non-fat milk in PBS-T buffer for 1 h, and washed three times (10 min each) in PBS-T with vigorous shaking. The blots were then incubated with HRP-conjugated secondary antibody (diluted 1:2000 in 1% non-fat milk in PBS-T buffer) for 1 h and washed three times (10 min each) in PBS-T. Signal detection was achieved using enhanced chemi-luminescence (ECL plus system, Amersham Pharmacia Biotech) according to manufacturer's instructions.
30-50 μg protein extracts were subjected to SDS-PAGE and Western immuno-blotting. Secondary antibodies were IgG-HRP and ECL Plus detection kit (Amersham Pharmacia Biotech, Amersham Place, Little Chalfont, Bucks, HP7 9NA) was used for visualisation.

NF-κB [2] = experiment: EMSA of NF-κB DNA binding in nuclear extracts of treated amnion cells; format: cell-based, human; settings: L− and L+ amnion cells, treated 2 h, IL-1β stimulation 15 min
Experimental: Electro-mobility shift assay (EMSA) analysis of NF-κB DNA binding in nuclear protein extracts from (A) myometrial cells, (B) L+amnion cells, and (C) L− amnion cells treated with 15dPGJ2 or vehicle for 2 h+/−IL-1b stimulation (15 min). Consensus kB probe used to assess NF-κB DNA binding, and consensus Oct-1 probe used as control.
EMSA analysis of nuclear protein extracts from amnion cells treated with 15dPGJ2+/−GW9662 or vehicle for 2 h followed by IL-1β stimulation (15 min). Consensus kB probe used to assess NFκB DNA binding, consensus Oct-1 probe used as control.
EMSA analysis of nuclear protein extracts from (A) myometrial cells, and (B) amnion cells treated with PGA1 or vehicle for 2 h followed by IL-1b stimulation (15 min). Consensus κB probe used to assess NFκB DNA binding, consensus Oct-1 probe used as control. For supershift analysis, extracts were preincubated with antibodies against p50 or p65.
EMSA analysis of nuclear protein extracts from (A) L− amnion cells and (B) myometrial cells treated with vehicle, PGE2 or IL-1β. Consensus κB probe used.
Placentae were obtained from patients at term either at elective Caesarean section prior to labour (L−) or following spontaneous labour onset and vaginal delivery (L+). Amnion cells were prepared as described in Bennett et al., (1989). Briefly, the amnion was separated from the placenta, washed 3× in PBS, cut into strips, and incubated in 0.51 mM EDTA in PBS for 15 min. The strips were washed in PBS 2× and digested with 2.5 mg/ml dispase in serum-free DMEM for 35 min at 37° C. The amnion was then shaken vigorously in DMEM, 10% FCS to dissociate the cells, the remaining strips discarded, and the cell suspension pelleted at 175 g for 10 min and cultured in DMEM, 10% FCS (Sigma), 1% L-glutamine, 1% penicillin-streptomycin.
as §1
Sense and antisense strands (175 nmole/ml each) were incubated in annealing buffer (10 mM Tris-HCl pH7.5, 100 mM NaCl, 1 mM EDTA) for 10 min at 65° C., and allowed to cool at room temperature for 2 h. 3.5 pmole double-stranded oligonucleotides were end-labelled with 0.37 MBq ^32P(γATP) by incubating for 30 min at 37° C. with T4 polynucleotide kinase. Labelled oligonucleotides were recovered by centrifugation at […] for 2 min through MicroSpin G-25 or G-50 sephadex columns (Amersham Biosciences). […]

SMILES	IL-1β-induced IκBα and IκBβ degradation (NF-κB [1])	IL-1β-induced p50 phosphorylation (NF-κB [1])	IL-1β-induced p65 nuclear translocation (NF-κB [1])	Accumulation of phosphorylated IκBα (NF-κB [1]; 2 h, IL-1β 15 min)	IκBα phosphorylation (NF-κB [1]; cytosolic extracts)	IL-1β-induced NF-κB DNA binding (NF-κB [2])	IL-1β-induced IκBα degradation (NF-κB [1])
CCCCCC=CC=C1C(=O)C=C[C@@H]1CC=CCCCC(=O)O [15d-PGJ2, 15-deoxy-Δ^12,14prostaglandin J2]	inhibition	inhibited	inhibited	not detected	inhibits	inhibited	
CCCCC[C@H](O)/C=C/[C@H]1C=CC(=O)[C@@H]1CCCCCCC(=O)O [PGA1, prostaglandin A1]			inhibited			able to inhibit	inhibited
